For assay [1], the target named is DGAT2 in primary human hepatocytes (Homo sapiens (Human), UniProt Q96PD7). As to the kind of experiment: IC50 for DGAT2 inhibitors in human hepatocytes, [14C]-glycerol incorporation into lipids. The format is cell-based. The method, then: For evaluation of the effects of DGAT2 inhibitors in a cell-based setting, cryopreserved human hepatocytes (Lot QOC and NON, Celsis, Chicago, Ill.) were thawed and plated onto type I collagen-coated plates according to the manufacturer's instructions. After 24 hours overnight recovery period, the cells were overlayed with media containing 250 μg/ml Matrigel (BD Biosciences, San Jose, Calif.). The following day, media was aspirated and replaced with serum-free Williams Media E (Life Technologies, Grand Island, N.Y.) containing 400 μM sodium dodecanoate (Sigma-Aldrich, St. Louis, Mo.). Forty minutes later, DGAT2 inhibitors (prepared as 100× stocks in 25% DMSO, 75% Williams' Media E) were added to the desired final concentration. […] After a 20 minute preincubation, 0.2 μCi [1,3-^14C]-glycerol glycerol (American Radio Chemicals, St. Louis, Mo.) was added to each well and mixed by gentle pipetting prior to a 3 hour incubation. At this point, media was aspirated and the cells were lysed in isopropyl alcohol: tetrahydrofuran (9:1) prior to centrifugation at 3000 rpm for 5 minutes. Radiolabeled lipids were resolved using a 2-solvent system by thin layer chromatography using standard technique (solvent 1 contained ethyl acetate:isopropyl alcohol:chloroform:methanol:0.25% potassium chloride in water (100:100:100:40.2:36.1, v/v/v/v) and solvent 2 contained hexane: diethyl ether: acetic acid (70:27:3, v/v/v)). After separation, radiolabeled lipids were visualized using a Molecular Dynamics' PhosphorImager system. The half maximal inhibitory concentrations (IC50 values) were determined using GraphPad Prism (GraphPad Software, Inc., La Jolla, Calif.).
Table 4 below provides IC50 values for the Examples in accordance with the above-described assay. Results were reported as average IC50 values, low and high IC50 range (95% confidence interval).

In a further assay the target is hDGAT2 (Homo sapiens (Human), UniProt Q96PD7). In words: In vitro DGAT2 assay, hDGAT2 membrane fraction, [14C]decanoyl-CoA scintillation readout. The following applies: geometric mean; FLAG-hDGAT2 membrane fraction; 2 h preincubation; read-out: IC50 for inhibition of DGAT2. The assay is classed as biochemical. The protocol:
Recombinant baculovirus for the FLAG-tagged hDGAT2 was generated in SF9 insect cells using Bac-to-Bac baculovirus expression system (Invitrogen) according to the manufacturer's protocol. For the expression of hDGAT2, SF9 cells (20 L) grown in Sf90011 media were infected with hDGAT2 baculovirus at a multiplicity of infection of 1 in a Wave Bioreactor System 20/50P wave bag (GE Healthcare). After 40 hours of infection, the cells were then harvested by centrifugation at 5,000×g. The cell pellets were washed by resuspending in phosphate buffered saline (PBS) and collected by centrifugation at 5,000×g. The cell paste was flash frozen in liquid N2 and stored at −80° C. until needed. All operations below were at 4° C. unless otherwise noted. The cells were resuspended in lysis buffer (50 mM Tris-HCl, pH 8.0, 250 mM sucrose) including 1 mM ethylenediaminetetraacetic acid (EDTA) and the complete protease inhibitor cocktail (Roche Diagnostics) at a ratio of 3 ml buffer per 1 g cell paste. The cells were lysed by dounce homogenizer. The cell debris was removed by centrifugation at 1,000×g for 20 min, and the supernatant was centrifuged at 100,000×g for 1 hour. The resulting pellet was rinsed three times by filling ultracentrifuge tubes to the top with ice cold PBS before decanting. The washed pellet was resuspended with gentle stirring for 1 hour in lysis buffer containing 8 mM 3-[(3-cholamidopropyl)dimethylammonio]-1-propanesulfonate (CHAPS) at a ratio of 1 mL buffer per 1 g of original cell paste and centrifuged again at 100,000×g for 1 hour. The resulting supernatant was aliquotted, flash frozen in liquid N2, and stored at −80° C. until use.
For determination of IC50 values, the reactions were carried out in 384-well white Polyplates (Perkin Elmer) in a total volume of 20 μL. To […] compounds dissolved in 100% DMSO and spotted at the bottom of each well, 5 μL of 0.04% bovine serum albumin (BSA) (fatty acid free, Sigma Aldrich) was added and the mixture was incubated at room temperature for 20 minutes. To this mixture, 10 μL of hDGAT2 membrane fraction (0.01 mg/mL) diluted in 100 mM Hepes-NaOH, pH 7.4, 20 mM MgCl2 containing 200 nM methyl arachidonyl fluorophosphonate (Cayman Chemical; dried from ethyl acetate stock solution under argon gas and dissolved in DMSO as 5 mM stock) was added. After this mixture was preincubated at room temperature for 2 hours, DGAT2 reactions were initiated by the addition of 4 μL of substrates containing 30 μM [1-^14C]decanoyl-CoA (custom-synthesized by Perkin Elmer, 50 mCi/mmol) and 125 μM 1,2-didecanoyl-sn-glycerol (Avanti Polar Lipids) dissolved in 12.5% acetone. The reaction mixtures were incubated at room temperature for 40 min and the reactions were stopped by addition of 5 μL of 1% H3PO4. After the addition of 45 μL MicroScint-E (Perkin-Elmer), plates were sealed with Top Seal-A covers (Perkin-Elmer) and phase partitioning of substrates and products was achieved using a HT-91100 microplate orbital shaker (Big Bear Automation, Santa Clara, Calif.). Plates were centrifuged at 2,000×g for 1 min in an Allegra 6R Centrifuge (Beckman Coulter) and then were sealed again with fresh covers before reading in a 1450 Microbeta Wallac Trilux Scintillation Counter (Perkin Elmer). DGAT2 activity was measured by quantifying the generated product [^14C]tridecanoylglycerol in the upper organic phase.
Inhibitors were tested at eleven different concentrations to generate IC50 values for each compound.

Setting [2] is: average, cryopreserved human hepatocytes, selective DGAT1 inhibitor 3 μM in all wells, 3 hour incubation, read-out: IC50 in primary human hepatocytes.

Like-named read-outs stand apart in the source and are kept apart here.

Chain of DGAT2 in primary human hepatocytes (Q96PD7 whole entry): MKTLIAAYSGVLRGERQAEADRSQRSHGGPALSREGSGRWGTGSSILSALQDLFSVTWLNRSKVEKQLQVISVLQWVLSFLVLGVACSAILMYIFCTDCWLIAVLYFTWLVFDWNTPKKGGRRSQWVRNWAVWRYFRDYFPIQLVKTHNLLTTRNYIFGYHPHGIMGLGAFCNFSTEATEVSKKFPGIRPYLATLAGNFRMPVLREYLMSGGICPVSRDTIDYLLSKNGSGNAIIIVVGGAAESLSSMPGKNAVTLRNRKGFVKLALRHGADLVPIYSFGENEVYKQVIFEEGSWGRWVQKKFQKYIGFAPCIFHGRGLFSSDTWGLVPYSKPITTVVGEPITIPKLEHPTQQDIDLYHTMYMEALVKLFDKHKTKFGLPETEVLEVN
Chain of hDGAT2 (Q96PD7 whole entry): as above

The term IC50 denotes the midpoint of a concentration-inhibition curve. As to `CCOc1ccccc1O[C@@H]1CCCN(c2ncc(C(=O)NCCc3cn[nH]c3O)cn2)C1` [Example 20.8, (R)-2-(3-(2-ethoxyphenoxy)piperidin-1-yl)-N-(2-(5-hydroxy-1H-pyrazol-4-yl)ethyl)pyrimidine-5-carboxamide], the values for the concentration for half-maximal inhibition (IC50) (in assay [1] (setting [2]); at hDGAT2) were 0.0378 µM and 0.0293 µM, respectively.

In the case of `CCOc1ccccc1O[C@@H]1CCCN(c2ncc(C(=O)NCc3ccccc3CC(=O)O)cn2)C1` [Example 18.3, (R)-2-(2-((2-(3-(2-ethoxyphenoxy)piperidin-1-yl)pyrimidine-5-carboxamido)methyl)phenyl)acetic acid], the half-maximal inhibitory concentration (IC50) was determined as 0.499 µM in assay [1] (setting [2]) and 0.182 µM at hDGAT2.

Turning to `CCOc1ccccc1O[C@@H]1CCCN(c2ncc(C(=O)NCc3ccc(C(=O)O)cc3C)cn2)C1` [Example 13, (R)-4-((2-(3-(2-ethoxyphenoxy)piperidin-1-yl)pyrimidine-5-carboxamido)methyl)-3-methylbenzoic acid], the IC50 in assay [1] (setting [2]) was found to be 0.0207 µM; at hDGAT2, 0.0452 µM.

Consider `CCOc1ccccc1O[C@@H]1CCCN(c2ncc(C(=O)NCc3nc(=O)[nH][nH]3)cn2)C1` [Example 20.5, (R)-2-(3-(2-ethoxyphenoxy)piperidin-1-yl)-N-((5-oxo-2,5-dihydro-1H-1,2,4-triazol-3-yl)methyl)pyrimidine-5-carboxamide], for which the values for the half-maximal inhibitory concentration (IC50) (in assay [1] (setting [2]); at hDGAT2) were 0.0816 µM and 0.068 µM, respectively.

For the molecule `CCOc1ccccc1O[C@@H]1CCCN(c2ncc(C(=O)NCc3cc(C(=O)O)ccc3C)cn2)C1` [Example 9, (R)-3-((2-(3-(2-ethoxyphenoxy)piperidin-1-yl)pyrimidine-5-carboxamido)methyl)-4-methylbenzoic acid], the figures for the IC50 (in assay [1] (setting [2]); at hDGAT2) were 0.057 µM and 0.0381 µM, respectively.

Consider `CCOc1ccccc1O[C@@H]1CCCN(c2ncc(C(=O)NCc3cccc(CC(=O)O)c3)cn2)C1` [Example 18.2, (R)-2-(3-((2-(3-(2-ethoxyphenoxy)piperidin-1-yl)pyrimidine-5-carboxamido)methyl)phenyl)acetic acid], for which the IC50 in assay [1] (setting [2]) turned out to be 0.0457 µM; at hDGAT2, 0.156 µM.

Regarding `CCOc1ccccc1O[C@@H]1CCCN(c2ncc(C(=O)NCc3cccc(C(=O)O)c3)cn2)C1` [Example 1, (R)-3-((2-(3-(2-ethoxyphenoxy)piperidin-1-yl)pyrimidine-5-carboxamido)methyl)benzoic acid], the IC50 came to 0.0112 µM in assay [1] (setting [2]) and 0.0916 µM on hDGAT2.

As to `CCOc1ccccc1O[C@@H]1CCCN(c2ncc(C(=O)NCc3cc(O)no3)cn2)C1` [Example 19.2, (R)-2-(3-(2-ethoxyphenoxy)piperidin-1-yl)-N-((3-hydroxyisoxazol-5-yl)methyl)pyrimidine-5-carboxamide], the figures for the IC50 (in assay [1]; on hDGAT2) were 0.341 µM and 0.262 µM, respectively.

With `CCOc1ccccc1O[C@@H]1CCCN(c2ncc(C(=O)NCc3cc(C(=O)O)ccc3F)cn2)C1` [Example 10, (R)-3-((2-(3-(2-ethoxyphenoxy)piperidin-1-yl)pyrimidine-5-carboxamido)methyl)-4-fluorobenzoic acid], the IC50 was 0.0104 µM in assay [1] (setting [2]) and 0.0873 µM on hDGAT2.

With `CCNC(=O)c1cnc(N2CCC[C@@H](Oc3ccc(C#N)cc3OCC)C2)nc1` [Example 17, (R)-2-(3-(4-cyano-2-ethoxyphenoxy)piperidin-1-yl)-N-ethylpyrimidine-5-carboxamide], the 50% inhibitory concentration (IC50) in assay [1] (setting [2]) is 0.0198 µM; on hDGAT2, 0.182 µM.

As to `CCOc1ccccc1O[C@@H]1CCCN(c2ncc(C(=O)N[C@H]3CCC[C@H]3C(=O)O)cc2F)C1` [Example 5, (1R,2S)-2-(6-((R)-3-(2-ethoxyphenoxy)piperidin-1-yl)-5-fluoronicotinamido)cyclopentane-1-carboxylic acid], the half-maximal inhibitory concentration (IC50) in assay [1] (setting [2]) is 0.0084 µM; on hDGAT2 it was 0.0666 µM.

As for `CCOc1ccccc1O[C@@H]1CCCN(c2ncc(C(=O)N[C@H]3CCC[C@H]3C(=O)O)cn2)C1` [Example 6, (1R,2S)-2-(2-((R)-3-(2-ethoxyphenoxy)piperidin-1-yl)pyrimidine-5-carboxamido)cyclopentane-1-carboxylic acid], the values for the IC50 (in assay [1] (setting [2]); at hDGAT2) were 0.0578 µM and 0.222 µM, respectively.

For `CCOc1ccccc1O[C@@H]1CCCN(c2ncc(C(=O)NCc3cc(C)cc(C(=O)O)c3)cn2)C1` [Example 16, (R)-3-((2-(3-(2-ethoxyphenoxy)piperidin-1-yl)pyrimidine-5-carboxamido)methyl)-5-methylbenzoic acid], the IC50 in assay [1] (setting [2]) is 0.045 µM; on hDGAT2 it was 0.0477 µM.

(Values after patent US9789110B2, “Diacylglycerol acyltransferase 2 inhibitors” (PFIZER INC., priority 2014, dated 2017).)
